{"source": "paper PMC11475570", "about": "“Impact of Optimized Ku–DNA Binding Inhibitors on the Cellular and In Vivo DNA Damage Response” (Cancers, 2024)", "key": {"DNA-PK": {"target": "T1, DNA-PK (Homo sapiens, UniProt P12956+P13010)", "T1 construct": "made in house; Ku 70/80 from baculovirus-infected Sf9 cells", "T1 sequence (P12956 whole entry)": "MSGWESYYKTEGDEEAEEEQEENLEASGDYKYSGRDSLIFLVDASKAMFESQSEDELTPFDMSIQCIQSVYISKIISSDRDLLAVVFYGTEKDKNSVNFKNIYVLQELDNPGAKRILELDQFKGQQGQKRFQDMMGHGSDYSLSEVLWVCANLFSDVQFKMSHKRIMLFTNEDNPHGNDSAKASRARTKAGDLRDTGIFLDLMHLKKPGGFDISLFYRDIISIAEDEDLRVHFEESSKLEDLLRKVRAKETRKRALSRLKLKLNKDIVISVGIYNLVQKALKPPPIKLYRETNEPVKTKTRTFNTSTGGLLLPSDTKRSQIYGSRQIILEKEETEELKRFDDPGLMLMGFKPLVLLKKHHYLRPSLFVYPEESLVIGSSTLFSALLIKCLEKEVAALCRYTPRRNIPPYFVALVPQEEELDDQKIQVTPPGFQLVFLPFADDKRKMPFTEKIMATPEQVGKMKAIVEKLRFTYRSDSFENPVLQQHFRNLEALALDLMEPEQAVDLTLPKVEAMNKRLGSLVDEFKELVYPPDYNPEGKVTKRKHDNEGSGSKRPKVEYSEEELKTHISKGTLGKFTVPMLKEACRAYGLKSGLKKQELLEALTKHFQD", "T1 sequence (P13010 whole entry)": "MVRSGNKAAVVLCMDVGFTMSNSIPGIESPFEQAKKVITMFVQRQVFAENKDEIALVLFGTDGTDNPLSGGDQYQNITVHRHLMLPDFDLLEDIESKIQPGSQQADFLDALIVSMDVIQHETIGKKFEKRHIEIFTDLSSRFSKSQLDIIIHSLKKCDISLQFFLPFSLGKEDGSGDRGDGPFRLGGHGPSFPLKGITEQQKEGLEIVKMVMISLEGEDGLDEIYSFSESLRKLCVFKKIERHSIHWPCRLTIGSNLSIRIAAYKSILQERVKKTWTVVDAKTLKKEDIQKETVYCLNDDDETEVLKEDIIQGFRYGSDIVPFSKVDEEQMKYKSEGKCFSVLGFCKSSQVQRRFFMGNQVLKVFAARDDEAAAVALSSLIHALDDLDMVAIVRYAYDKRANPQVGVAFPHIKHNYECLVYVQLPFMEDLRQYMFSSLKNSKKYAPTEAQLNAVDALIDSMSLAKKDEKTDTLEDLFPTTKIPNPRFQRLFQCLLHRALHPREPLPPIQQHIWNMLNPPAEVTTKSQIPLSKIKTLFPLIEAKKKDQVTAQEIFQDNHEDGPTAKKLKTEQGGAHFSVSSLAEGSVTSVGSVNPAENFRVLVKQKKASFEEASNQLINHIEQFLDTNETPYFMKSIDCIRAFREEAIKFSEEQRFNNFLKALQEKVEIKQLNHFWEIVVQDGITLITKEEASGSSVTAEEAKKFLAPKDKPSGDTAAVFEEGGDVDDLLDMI", "test": "DNA-PK kinase assay (phosphate transfer to p53 peptide)", "type": "biochemical", "protocol": "The inhibitory activity of Ku-DBis on Ku-DNA binding was evaluated in vitro using Electrophoretic mobility shift assays (EMSA) with a [^32P]-labeled 30-bp duplex DNA and purified Ku 70/80. Kinase assays were performed to measure the DNA-dependent transfer of [^32P] from γ-[^32P] ATP to a synthetic p53-based peptide substrate, both as previously described. Both EMSA and DNA-PK inhibitor titration assays were performed in triplicate. Data were fit to standard binding curves using GraphPad Prism to determine IC50 values."}, "Ku70–Ku80 [1]": {"target": "T2, Ku70–Ku80 (Homo sapiens, UniProt P12956+P13010)", "T2 construct": "made in house; host or cells: baculovirus-infected Sf9 cells", "T2 sequence (P12956 whole entry)": "as the sequence (P12956 whole entry) above", "T2 sequence (P13010 whole entry)": "as the sequence (P13010 whole entry) above", "test": "Microscale thermophoresis (MST)", "type": "binding", "settings": "labeled Ku 5 nM, 5% DMSO, single-site fit", "protocol": "Ku heterodimer was labeled using the Monolith NT™ Protein Labeling Kit RED-NHS (2nd generation amine reactive, NanoTemper Technologies GmbH, MO-L011, München, Germany), following the manufacturer’s protocol. Ku-DBi 3392 powder was resuspended in 100% DMSO, and the concentration was adjusted to 50 mM after UV absorbance measurement (absorbance at 417 nm with an extension coefficient equal to 15.2 mM^−1 cm^−1). The ligand stock solution was sonicated in an ultrasonic bath before preparations of the dilution series. The MST and Differential Scanning Fluorometry (DSF) assays contain 5% DMSO to fit the DMSO concentration at the highest ligand concentration (200 µM). The labeled protein (5 nM) was incubated with ligand 3392 ranging from 98 nM to 200 µM in a 12-point 1:1 dilution series. Protein–ligand solutions were incubated for 30 min at room temperature before MST measurements, which were performed in triplicate. Proteins were transferred to capillaries (Monolith NT. Automated Premium Capillary Chips), and binding was analyzed with a Monolith NT. Automated pico-RED device using MO. Control Software with nano-red excitation, LED light adjusted to 20% excitation power, and infrared laser (MST power) set to medium. The dissociation constants (KD) were determined with MO. […]"}, "Ku70–Ku80 [2]": {"target": "T2, Ku70–Ku80", "test": "nanoDSF thermostability and aggregation", "type": "binding", "settings": "Ku 5 µM, 5 µM 3392, up to 25 µM no additional change", "protocol": "The thermostability and aggregation propensity of Ku was assessed using a Prometheus Panta nanoDSF instrument (NanoTemper Technologies GmbH, München, Germany). High-sensitivity capillaries were filled with Ku (10 μL each, experiments in triplicate) at a concentration of 5 µM into the instrument. We titrated against ligand 3392 covering a concentration ranging from 0 to 30 µM with measurements collected at a 1 °C-per-minute scan rate from 25 to 95 °C. Thermal unfolding was assessed by the increase in intrinsic tryptophan fluorescence detected at 350 and 330 nm following excitation at 280 nm. Inflection points in the thermal denaturation curves were identified using the first derivatives of the ratio r = fluorescence (350 nm)/fluorescence (330 nm). We measured dynamic light scattering (DLS) and turbidity throughout the heating ramp using back reflection to characterize protein aggregation. We determined aggregation temperatures using turbidity variations and increases in particle sizes."}, "H460 NSCLC cells": {"system": "H460 NSCLC cells", "test": "Cellular uptake by HPLC", "type": "in vitro ADME, Human", "settings": "H460, 10 µM", "protocol": "Cellular uptake was evaluated in two NSCLC cell lines, H460 and A549. Cells were seeded into 6-well plates at a density of 1 × 10^6 cells per well and cultured as monolayers at 37 °C and 5% CO2 for 18–24 h. Ku-DBis were added to the media at a concentration of 10 µM and incubation continued for the times indicated. Media were removed, cells were washed 3 times with PBS, 1 mL of methanol was added to each well, and cells were agitated overnight at 4 °C. The methanol was collected, and wells were washed with an additional 1 mL of methanol that was then pooled with the original. The methanol extracts were then dried under vacuum, resuspended in methanol, and analyzed by HPLC using a 250 × 4.6 and 5 μm C-18 reverse phase column with 1% TFA mobile phase in acetonitrile (ACN) gradient elution. Absorption was monitored at 425 nm, HPLC peaks were quantified using a standard curve, and picomoles of compound per million cells was calculated."}, "H1299": {"system": "H1299", "test": "CCK-8 cell viability, single agent", "type": "cell-based, Human", "protocol": "(§1) Cell metabolism/viability was assessed using a mitochondrial metabolism assay (CCK-8) kit (Cell Counting Kit-8, Cat: CK04, Dojindo Laboratories, Rockville, MD, USA) as previously described. Briefly, cells were seeded at a density of 3 × 10^3 cells per well in 96-well plates and allowed to adhere and stretch for 18–24 h prior to treatment. Cells were pre-treated with Ku-DBi for 24 h before bleomycin treatments. Subsequently, cells were incubated for an additional 48 h at 37 °C after which CCK-8 assay was performed. The absorbance of the formed formazan product in each well was measured at 450 nm and compared to vehicle-treated controls to determine percent cell viability. The results represent the average and SEM of triplicate determinations."}, "H23": {"system": "H23", "test": "CCK-8 cell viability, single agent", "type": "cell-based, Human", "settings": "Homo sapiens", "protocol": "as §1"}, "H460": {"system": "H460", "test": "CCK-8 cell viability, single agent", "type": "cell-based, Human", "settings": "for IC50: H460, CCK-8, 72 h, mean ± SD", "protocol": "as §1"}, "MDA-436": {"system": "MDA-436", "test": "CCK-8 cell viability, single agent", "type": "cell-based, Human", "settings": "Homo sapiens", "protocol": "as §1"}, "H460 cells": {"system": "H460 cells", "test": "3392 and bleomycin combination, CCK-8, SynergyFinder", "type": "cell-based, Human", "protocol": "as §1"}, "Ku wild-type MEFs": {"system": "Ku wild-type MEFs", "test": "Bleomycin sensitization, CCK-8", "type": "cell-based", "settings": "20 μM 3392 for 24 h, then bleomycin 48 h", "protocol": "(§2) page 20: Supplementary Figure S4. Ku-DBi 3392 sensitivity to bleomycin in wild-type (WT) and Ku 80-null MEFs cells. MEF cells were pre-treated with vehicle or 20 μM 3392 for 24 h and then increasing concentrations of bleomycin for 48 h after which cell viability was determined by CCK-8. Data are presented as the mean and SEM of triplicate determinations. (1 picture or pasted object on this page, not shown here)"}, "Ku80-null MEF": {"system": "Ku80-null MEF", "test": "Bleomycin sensitization, CCK-8", "type": "cell-based", "settings": "20 μM 3392 for 24 h, then bleomycin 48 h", "protocol": "as §2"}}, "data": [{"smiles": "COc1ccc(-c2ccc(/C=C3\\C(=O)N(c4cccc(C(=O)O)c4)c4ccccc43)o2)cc1C(=O)Nc1cccc(OC(F)(F)F)c1", "note": "[GL-3392]", "values": [{"measurement": "DNA-PK inhibitory activity, fold more active than fluoro-modified counterparts (3618 and 3649)", "setting": "DNA-PK", "value": "~ 2.5 fold"}, {"measurement": "IC50", "setting": "DNA-PK; DNA-dependent phosphate transfer to synthetic p53 peptide, purified DNA-PK, mean and SD of triplicate", "value": "0.77 ± 0.19", "unit": "µM"}, {"measurement": "Kd", "setting": "Ku70–Ku80 [1]", "value": "2.1 ± 0.3", "unit": "µM"}, {"measurement": "Thermal stability of Ku", "setting": "Ku70–Ku80 [2]", "value": "induced a shift in thermal stability"}, {"measurement": "Uptake time course, initial rate and steady-state uptake", "setting": "H460 NSCLC cells", "value": "higher cellular levels than 3395"}, {"measurement": "Cellular uptake, fold more efficient than methoxy-derivatives 3395 and 3649", "setting": "H460 NSCLC cells; media with 10% FBS", "value": "~ 3 fold"}, {"measurement": "Cell viability at the highest concentrations assessed", "setting": "H1299; H1299", "value": "~ 90%"}, {"measurement": "viability at 25 µM", "setting": "H1299; Homo sapiens, NCI-H1299, H1299, 25 µM", "value": "89.9 ± 10.1", "unit": "%"}, {"measurement": "IC50", "setting": "H1299; Homo sapiens, NCI-H1299, H1299, CCK-8, 72 h, mean ± SD", "value": "> 50", "unit": "µM"}, {"measurement": "IC50", "setting": "H23; NCI-H23, 72 h, H23, CCK-8, 72 h, mean ± SD", "value": "~8", "unit": "µM"}, {"measurement": "viability at 25 µM", "setting": "H23; NCI-H23, H23, 25 µM", "value": "12.7 ± 0.7", "unit": "%"}, {"measurement": "IC50", "setting": "H460", "value": "7.7 ± 0.6", "unit": "µM"}, {"measurement": "IC50", "setting": "H460; Homo sapiens, NCI-H460, 72 h", "value": "~8", "unit": "µM"}, {"measurement": "viability at 25 µM", "setting": "H460; Homo sapiens, NCI-H460, H460, 25 µM", "value": "12.3 ± 0.6", "unit": "%"}, {"measurement": "viability at 25 µM", "setting": "MDA-436; MDA-436, 25 µM", "value": "43.9 ± 2.6", "unit": "%"}, {"measurement": "IC50", "setting": "MDA-436; MDA-436, CCK-8, 72 h, mean ± SD", "value": "22.2 ± 1.4", "unit": "µM"}, {"measurement": "Type of interaction with bleomycin (HSA and Bliss models)", "setting": "H460 cells; H460, 3392 combined with bleomycin", "value": "additive interaction"}, {"measurement": "inhibition at 5 µM", "setting": "H460 cells; Homo sapiens, NCI-H460, H460, bleomycin 0 μM, GL-3392 5 μM, read-out: Response matrix for inhibition", "value": 34, "unit": "%"}, {"measurement": "inhibition at 10 µM", "setting": "H460 cells; Homo sapiens, NCI-H460, H460, bleomycin 0 μM, GL-3392 10 μM, read-out: Response matrix for inhibition", "value": 78.9, "unit": "%"}, {"measurement": "inhibition at 15 µM", "setting": "H460 cells; Homo sapiens, NCI-H460, H460, bleomycin 0 μM, GL-3392 15 μM, read-out: Response matrix for inhibition", "value": 79.8, "unit": "%"}, {"measurement": "Ku-DBi-dependent change in sensitivity to bleomycin", "setting": "Ku wild-type MEFs", "value": "increases in the sensitivity to bleomycin were only observed in Ku wild-type cells"}, {"measurement": "Ku-DBi-dependent change in sensitivity to bleomycin", "setting": "Ku80-null MEF", "value": "did not increase sensitivity"}]}]}
